Experimental data from patent publication US6355799B1, “Substituted benzene compounds, process for their preparation, and herbicidal and defoliant compositions containing them” (ISK Americas Incorporated, priority 1997, dated 2002).

What was measured:
Format in all cases: in vivo
[1] = system: barnyardgrass (Echinochloa crus-galli, ECHCG); test: Post-emerge test, greenhouse herbicide activity screening; settings: post-emerge, 14 days after application, rating scale 0-100
From the text: (§1) A standard greenhouse herbicide activity screening system was used to evaluate the herbicidal efficacy and crop safety of these test compounds. Seven broadleaf weed species including redroot pigweed (Amaranthus retroflexus, AMARE, velvetleaf (Abutilon theophrasti, ABUTH), sicklepod (Cassia obtusifolia, CASOB), ivyleaf morningglory (Ipomoea hederacea, IPOHE), lambsquarters (Chenopodium album, CHEAL), common ragweed (Ambrosia artemisizfolia L., AMBEL), and cocklebur (Xanthium strumarium, XANST) were used as test species. Four grass weed species including green foxtail (Setaria viridis, SETVI), barnyardgrass (Echinochloa crus-galli, ECHCG), johnsongrass (Sorghum halepense, SORHA), and large crabgrass (Digitaria sanguinalis, DIGSA) were also used. In addition, three crop species, field corn (Zea mays L., var. Dekalb 535, CORN), soybean (Glycine max L., var. Pella 86, SOY), and is upland rice (Oryza sp., var. Tebonnet, RICE) were included.
(§2) All plants were grown in 10 cm square plastic pots which were filled with a sandy loam soil mix. For pre-emerge tests, seeds were planted one day prior to application of the test compounds. For post-emerge tests, seeds were planted 8-21 days prior to the test to allow emergence and good foliage development prior to application of the test substances. At the time of the post-emerge application, plants of all species were usually at the 2-3 leaf stage of development.
(§3) All test compounds Were dissolved in acetone and applied to the test units in a volume of 187 l /ha. Test materials were applied at rates ranging from 15 g ai/ha to 1000 g ai/ha using a track sprayer equipped with a TJ8001E even flow flat fan spray nozzle. Plants were arranged on a shelf so that the top of the canopy (post-emerge) or top of the soil surface (pre-emerge) was 40-45 cm below the nozzle. Pressurized air was used to force the test solution through the nozzle as it was mechanically advanced (via electrically driven chain drive) over the top of all test plants/pots. This application simulates a typical commercial field herbicide application.
(§4) In the post-emerge test, a commercial non-ionic surfactant was also included (0.25% v/v) to enhance wetting of the leaf surfaces of target plants. Immediately after application, test units of the pre-emerge applications were watered at the soil surface to incorporate the test materials. Subsequently, these test units were bottom-watered. Post-emerge test units were always bottom-watered.
(§5) At 14 days after application of the test materials, phytotoxicity ratings were recorded. A rating scale of 0-100 was used as previously described in Research Methods in Weed Science, 2nd edition, B. Truelove, Ed., Southern Weed Science Society, Auburn University, Auburn, Ala. 1977. Briefly, “0” corresponds to no damage and “100” corresponds to complete death of all plants in the test unit. This scale was used both to determine efficacy against weed species and damage to crop species. Herbicide activity data for various compounds of this invention, which are shown by compound No. in Tables 1-8, are shown in Tables 11 and 12.

[2] = system: green foxtail (Setaria viridis, SETVI); test: as above; settings: post-emerge, 14 days after application, rating scale 0-100
From the text: as §1, §2, §3, §4, §5

[3] = system: ivyleaf morningglory (Ipomoea hederacea, IPOHE); test: as above; settings: post-emerge, 14 days after application, rating scale 0-100
From the text: as §1, §2, §3, §4, §5

[4] = system: redroot pigweed (Amaranthus retroflexus, AMARE); test: as above; settings: post-emerge, 14 days after application, rating scale 0-100
From the text: as §1, §2, §3, §4, §5

[5] = system: sicklepod (Cassia obtusifolia, CASOB); test: as above; settings: post-emerge, 14 days after application, rating scale 0-100
From the text: as §1, §2, §3, §4, §5

[6] = system: lambsquarters (Chenopodium album, CHEAL); test: as above; settings: post-emerge, 14 days after application, rating scale 0-100
From the text: as §1, §2, §3, §4, §5

[7] = system: large crabgrass (Digitaria sanguinalis, DIGSA); test: as above; settings: post-emerge, 14 days after application, rating scale 0-100
From the text: as §1, §2, §3, §4, §5

[8] = system: velvetleaf (Abutilon theophrasti, ABUTH); test: as above; settings: post-emerge, 14 days after application, rating scale 0-100
From the text: as §1, §2, §3, §4, §5

[9] = system: barnyardgrass (Echinochloa crus-galli, ECHCG); test: Pre-emerge test, greenhouse herbicide activity screening; settings: pre-emerge, 14 days after application, scale 0-100
From the text: as §1, §2, §3, §4, §5

[10] = system: green foxtail (Setaria viridis, SETVI); test: as above; settings: pre-emerge, 14 days after application, scale 0-100
From the text: as §1, §2, §3, §4, §5

[11] = system: ivyleaf morningglory (Ipomoea hederacea, IPOHE); test: as above; settings: pre-emerge, 14 days after application, scale 0-100
From the text: as §1, §2, §3, §4, §5

[12] = system: sicklepod (Cassia obtusifolia, CASOB); test: as above; settings: pre-emerge, 14 days after application, scale 0-100
From the text: as §1, §2, §3, §4, §5

[13] = system: lambsquarters (Chenopodium album, CHEAL); test: as above; settings: pre-emerge, 14 days after application, scale 0-100
From the text: as §1, §2, §3, §4, §5

[14] = system: large crabgrass (Digitaria sanguinalis, DIGSA); test: as above; settings: pre-emerge, 14 days after application, scale 0-100
From the text: as §1, §2, §3, §4, §5

[15] = system: velvetleaf (Abutilon theophrasti, ABUTH); test: as above; settings: pre-emerge, 14 days after application, scale 0-100
From the text: as §1, §2, §3, §4, §5

[16] = system: upland rice (Oryza sp., var. Tebonnet, RICE); test: Pre-emerge test, crop safety; settings: pre-emerge, 14 days after application, scale 0-100
From the text: as §1, §2, §3, §4, §5

[17] = system: field corn (Zea mays L., var. Dekalb 535, CORN); test: Pre-emerge test, crop safety; settings: pre-emerge, 14 days after application, scale 0-100
From the text: as §1, §2, §3, §4, §5

[18] = system: upland rice (Oryza sp., var. Tebonnet, RICE); test: Post-emerge test, crop safety; settings: post-emerge, 14 days after application, rating scale 0-100
From the text: as §1, §2, §3, §4, §5

[19] = system: field corn (Zea mays L., var. Dekalb 535, CORN); test: Post-emerge test, crop safety; settings: post-emerge, 14 days after application, rating scale 0-100
From the text: as §1, §2, §3, §4, §5

[20] = system: redroot pigweed (Amaranthus retroflexus, AMARE); test: Pre-emerge test, greenhouse herbicide activity screening; settings: pre-emerge, 14 days after application, scale 0-100
Procedure, shortened: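 Rating: 0–100 visual injury, 14 DAA. Application: acetone, 187 l/ha, 15–1000 g ai/ha, flat-fan track sprayer with nozzle 40–45 cm above soil or canopy. Post-emerge runs used 0.25% v/v surfactant on 2–3 leaf plants.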

## COc1c(C#N)cc(F)c(-n2c(=O)cc(C(F)(F)F)n(C)c2=O)c1NC(=O)c1ccc2ccccc2c1 [2-181]
[1]; 63 g ai/ha
  ECHCG phytotoxicity rating: 40
[1]; 250 g ai/ha
  ECHCG phytotoxicity rating: 60
[2]; 63 g ai/ha
  SETVI phytotoxicity rating: 70
[2]; 250 g ai/ha
  SETVI phytotoxicity rating: 80
[3]; 63 g ai/ha
  IPOHE phytotoxicity rating: 100
[3]; 250 g ai/ha
  IPOHE phytotoxicity rating: 100
[4]; 63 g ai/ha
  AMARE phytotoxicity rating: 100
[4]; 250 g ai/ha
  AMARE phytotoxicity rating: 100
[5]; 63 g ai/ha
  CASOB phytotoxicity rating: 100
[5]; 250 g ai/ha
  CASOB phytotoxicity rating: 100
[6]; 63 g ai/ha
  CHEAL phytotoxicity rating: 100
[6]; 250 g ai/ha
  CHEAL phytotoxicity rating: 100
[7]; 63 g ai/ha
  DIGSA phytotoxicity rating: 30
[7]; 250 g ai/ha
  DIGSA phytotoxicity rating: 70
[8]; 63 g ai/ha
  ABUTH phytotoxicity rating: 100
[8]; 250 g ai/ha
  ABUTH phytotoxicity rating: 100
[9]; 63 g ai/ha
  phytotoxicity rating ECHCG: 40
[9]; 250 g ai/ha
  phytotoxicity rating ECHCG: 80
[10]; 63 g ai/ha
  phytotoxicity rating SETVI: 70
[10]; 250 g ai/ha
  phytotoxicity rating SETVI: 95
[11]; 63 g ai/ha
  phytotoxicity rating IPOHE: 30
[11]; 250 g ai/ha
  phytotoxicity rating IPOHE: 80
[12]; 63 g ai/ha
  phytotoxicity rating CASOB: 10
[12]; 250 g ai/ha
  phytotoxicity rating CASOB: 90
[13]; 63 g ai/ha
  phytotoxicity rating CHEAL: 100
[13]; 250 g ai/ha
  phytotoxicity rating CHEAL: 100
[14]; 63 g ai/ha
  phytotoxicity rating DIGSA: 60
[14]; 250 g ai/ha
  phytotoxicity rating DIGSA: 90
[15]; 63 g ai/ha
  phytotoxicity rating ABUTH: 100
[15]; 250 g ai/ha
  phytotoxicity rating ABUTH: 100
[16]; 63 g ai/ha
  phytotoxicity rating RICE (crop damage): 15
[16]; 250 g ai/ha
  phytotoxicity rating RICE (crop damage): 80
[17]; 63 g ai/ha
  phytotoxicity rating CORN (crop damage): 0
[17]; 250 g ai/ha
  phytotoxicity rating CORN (crop damage): 5
[18]; 63 g ai/ha
  RICE phytotoxicity rating (crop damage): 15
[18]; 250 g ai/ha
  RICE phytotoxicity rating (crop damage): 60
[19]; 63 g ai/ha
  CORN phytotoxicity rating (crop damage): 10
[19]; 250 g ai/ha
  CORN phytotoxicity rating (crop damage): 20
[20]; 63 g ai/ha
  phytotoxicity rating AMARE: 100
[20]; 250 g ai/ha
  phytotoxicity rating AMARE: 100

## C=Cc1ccc(C(=O)Nc2c(OC)c(Br)cc(F)c2-n2c(=O)cc(C(F)(F)F)n(C)c2=O)cc1 [2-182]
[1]; 63 g ai/ha
  ECHCG phytotoxicity rating: 0
[1]; 250 g ai/ha
  ECHCG phytotoxicity rating: 30
[2]; 63 g ai/ha
  SETVI phytotoxicity rating: 10
[2]; 250 g ai/ha
  SETVI phytotoxicity rating: 80
[3]; 63 g ai/ha
  IPOHE phytotoxicity rating: 100
[3]; 250 g ai/ha
  IPOHE phytotoxicity rating: 100
[4]; 63 g ai/ha
  AMARE phytotoxicity rating: 90
[4]; 250 g ai/ha
  AMARE phytotoxicity rating: 95
[5]; 63 g ai/ha
  CASOB phytotoxicity rating: 60
[5]; 250 g ai/ha
  CASOB phytotoxicity rating: 95
[6]; 63 g ai/ha
  CHEAL phytotoxicity rating: 95
[6]; 250 g ai/ha
  CHEAL phytotoxicity rating: 100
[7]; 63 g ai/ha
  DIGSA phytotoxicity rating: 0
[7]; 250 g ai/ha
  DIGSA phytotoxicity rating: 20
[8]; 63 g ai/ha
  ABUTH phytotoxicity rating: 100
[8]; 250 g ai/ha
  ABUTH phytotoxicity rating: 100
[9]; 63 g ai/ha
  phytotoxicity rating ECHCG: 10
[9]; 250 g ai/ha
  phytotoxicity rating ECHCG: 60
[10]; 63 g ai/ha
  phytotoxicity rating SETVI: 30
[10]; 250 g ai/ha
  phytotoxicity rating SETVI: 90
[11]; 63 g ai/ha
  phytotoxicity rating IPOHE: 0
[11]; 250 g ai/ha
  phytotoxicity rating IPOHE: 100
[12]; 63 g ai/ha
  phytotoxicity rating CASOB: 10
[12]; 250 g ai/ha
  phytotoxicity rating CASOB: 60
[13]; 63 g ai/ha
  phytotoxicity rating CHEAL: 100
[13]; 250 g ai/ha
  phytotoxicity rating CHEAL: 100
[14]; 63 g ai/ha
  phytotoxicity rating DIGSA: 30
[14]; 250 g ai/ha
  phytotoxicity rating DIGSA: 90
[15]; 63 g ai/ha
  phytotoxicity rating ABUTH: 100
[15]; 250 g ai/ha
  phytotoxicity rating ABUTH: 100
[16]; 63 g ai/ha
  phytotoxicity rating RICE (crop damage): 15
[16]; 250 g ai/ha
  phytotoxicity rating RICE (crop damage): 70
[17]; 63 g ai/ha
  phytotoxicity rating CORN (crop damage): 0
[17]; 250 g ai/ha
  phytotoxicity rating CORN (crop damage): 10
[18]; 63 g ai/ha
  RICE phytotoxicity rating (crop damage): 0
[19]; 63 g ai/ha
  CORN phytotoxicity rating (crop damage): 5
[19]; 250 g ai/ha
  CORN phytotoxicity rating (crop damage): 70
[20]; 63 g ai/ha
  phytotoxicity rating AMARE: 90
[20]; 250 g ai/ha
  phytotoxicity rating AMARE: 100
